Entries after “also recorded” stand apart in the source; their conditions may differ.
What was measured:
[1] = system: human foreskin fibroblasts (HFF); assay: Host cell cytotoxicity assay; type: cell-based; settings: for Host cell inhibition (%): 10 µM compounds, HFF cells, 48 hr; for IC50: Homo sapiens, HFF, 48 h, read-out: IC50 for host cell
[2] = system: Toxoplasma gondii RH-2F strain; assay: Parasite growth assay; type: cell-based; settings: for IC50 / inhibition at 10 µM: Toxoplasma gondii, 48 h; for IC50: read-out: IC50 for parasite growth; for inhibition at 10 µM: HFF, read-out: Parasite inhibition (%)
Toxoplasma gondii = settings: cited from earlier work
[3] = system: Toxoplasma gondii RH-2F intracellular tachyzoites; assay: Intracellular parasite growth assay; type: cell-based; settings: added after 2-hr invasion, 48 hr

Row | Compound | Host cell inhibition (%) [1] | IC50 [1] | IC50 [2] | inhibition at 10 µM [2] | Inhibition of intracellular parasite growth ([3]; 10 µM) | further results
1 | CC(C)=CC[C@@H](O)C1=CC(=O)c2c(O)ccc(O)c2C1=O [Shikonin] | 43.4% | 17.8 µM | 1.4 µM | 87.3% | – | Host cell inhibition (%) ([1]; listed as shikonin): did not kill the host cells; also recorded: killed some of the host cells
2 | Nc1ccc(S(=O)(=O)Nc2ncccn2)cc1 [sulphadiazine] | – | – | – | – | – | Selectivity indexes (SI) (Toxoplasma gondii): 0.29
3 | CC(C)=CC[C@H](O)C1=CC(=O)c2c(O)ccc(O)c2C1=O [Alkannin] | −0.3% | 5.4 µM | 1.3 µM | 86.9% | – | Host cell inhibition (%) ([1]; listed as alkannin): did not kill the host cells
4 | dextran sulfate [reference compound] | – | – | – | – | – | Inhibition of intracellular parasite growth ([3]; 25 mg/ml): hardly affected the intracellular parasites
5 | C[C@H]1CC[C@@]2(OC1)O[C@H]1C[C@H]3[C@@H]4CC[C@@H]5C[C@@H](O[C@@H]6O[C@H](CO)[C@H](O)[C@H](O)[C@H]6O[C@@H]6O[C@H](CO)[C@@H](O)[C@H](O)[C@H]6O)CC[C@]5(C)[C@H]4CC[C@]3(C)[C@H]1[C@@H]2C [Timosaponin A-III] | 98.3% | – | – | 81.4% | – | Host cell inhibition (%) ([1]; listed as timosaponin A-III): killed almost all of the host cells
6 | COc1ccc2cc3[n+](cc2c1OC)CCc1cc2c(cc1-3)OCO2 [Berberine Chloride] | −3.0% | 2.8 µM | 2.2 µM | 85.5% | – | Host cell inhibition (%) ([1]; listed as berberine chloride): did not kill the host cells
7 | O=c1cc(-c2ccc(O)c(O)c2)oc2cc(O)cc(O)c12 [Luteolin] | – | > 50 µM | 5.7 µM | 74.3% | effectively inhibited the intracellular parasite growth | –
8 | c1c2c(cc3c1OCO3)-c1cc3ccc4c(c3c[n+]1CC2)OCO4 [Coptisine Chloride] | 6.4% | > 50 µM | 2.1 µM | 73.3% | – | Host cell inhibition (%) ([1]; listed as coptisine chloride): did not kill the host cells; Dose dependence of parasite growth inhibition ([2]; high concentrations, data not shown): did not inhibit parasite growth in a dose-dependent manner
9 | O=c1cc(-c2ccccc2)oc2cc(O)c(O)c(O)c12 [Baicalein] | 3.3% | > 50 µM | 5 µM | 80.1% | effectively inhibited the intracellular parasite growth | Host cell inhibition (%) ([1]; listed as baicalein): did not kill the host cells; Inhibition of intracellular parasite growth ([3]; 10 µM, listed as baicalein): effectively inhibited intracellular parasite growth
10 | CCc1nc(N)nc(N)c1-c1ccc(Cl)cc1 [Pyrimethamine, reference compound] | – | – | – | – | inhibited the intracellular growth | Selectivity indexes (SI) (Toxoplasma gondii): 0.21
